Laboratory results published in patent US20050153872A1, “Methods and compositions for the treatment of infection” (priority 2004, published 2005).

B1: NH2-colicinIa-I626-GFTFSDYYMS-COOH (protein)
chain: SDPVARGITNPGAESLGYDSDGHEIMAVASPIYVASNPPRVASPVFHGTPPAWSSFGNKTIWGGNEWVASPDSPTRSDIEKRDKEITAYKNTLSAQQKENENKRTEAGKRLSAAIAAREKDENTLKTLRAGNADAADITRQEFRLLQAELREYGFRTEIAGYDALRLHTESRMLFADADSLRISPREARSLIEQAEKRQKDAQNADKKAADMLAEYERRKGILDTRLSELEKNGGAALAVLDAQQARLLGQQTRNDRAISEARNKLSSVTESLNTARNALTRAEQQLTQQKNTPDGKTIVSPEKFPGRSSTNHSIVVSGDPRFAGTIKITTSAVIDNRANLNYLLSHSGLDYKRNILNDRNPVVTEDVEGDKKIYNAEVALAEWDKLRQRLLDARNKITSAESAVASNSARNNLSARTNEQKHANDALNALLKEKENIRNQLSGINQKIAEEKRKQDELKATKDAINFTTEFLKSVSEKYGAKAEQLAREMAGQAKGKKIRNVEEALKTYEKYRADINKKINAKDRAAIAAALESVKLSDISSNLNRFSRGLGYAGKFTSLADWITEFGKAVARGTENWRPLFVKTETIIAGNAATALVALALVFSILTGSALGIIGYGLLMAVTGALIDESLVEKANKFWGIGFTFSDYYMS
modifications: G28 - S37 from HBV HBsAg ScFV linked to Colicin Ia
notes: heavy chain CDR1 of HBV HBsAg ScFv linked to colicin Ia at residue 626
B2: NH2-colicin Ia-I626-SYAIS-…-AAWDDSLH-COOH (protein)
chain: MSDPVARGITNPGAESLGYDSDGHEIMAVASPIYVASNPPRVASPVFHGTPPAWSSFGNKTIWGGNEWVASPDSPTRSDIEKRDKEITAYKNTLSAQQKENENKRTEAGKRLSAAIAAREKDENTLKTLRAGNADAADITRQEFRLLQAELREYGFRTEIAGYDALRLHTESRMLFADADSLRISPREARSLIEQAEKRQKDAQNADKKAADMLAEYERRKGILDTRLSELEKNGGAALAVLDAQQARLLGQQTRNDRAISEARNKLSSVTESLNTARNALTRAEQQLTQQKNTPDGKTIVSPEKFPGRSSTNHSIVVSGDPRFAGTIKITTSAVIDNRANLNYLLSHSGLDYKRNILNDRNPVVTEDVEGDKKIYNAEVALAEWDKLRQRLLDARNKITSAESAVASNSARNNLSARTNEQKHANDALNALLKEKENIRNQLSGINQKIAEEKRKQDELKATKDAINFTTEFLKSVSEKYGAKAEQLAREMAGQAKGKKIRNVEEALKTYEKYRADINKKINAKDRAAIAAALESVKLSDISSNLNRFSRGLGYAGKFTSLADWITEFGKAVARGTENWRPLFVKTETIIAGNAATALVALALVFSILTGSALGIIGYGLLMAVTGALIDESLVEKANKFWGISYAISWVARGQAAGQGLEWMGAAWDDSLH
modifications: CDRs from HBV PreS-1 ScFv linked to colicin Ia
notes: two CDRs from PreS-1 (Genbank AF427148) of HBV ScFv linked to colicin Ia
B3: NH2-colicinIa-I626-DEADYYCNSRDS-COOH (protein)
chain: SDPVARGITNPGAESLGYDSDGHEIMAVASPIYVASNPPRVASPVFHGTPPAWSSFGNKTIWGGNEWVASPDSPTRSDIEKRDKEITAYKNTLSAQQKENENKRTEAGKRLSAAIAAREKDENTLKTLRAGNADAADITRQEFRLLQAELREYGFRTEIAGYDALRLHTESRMLFADADSLRISPREARSLIEQAEKRQKDAQNADKKAADMLAEYERRKGILDTRLSELEKNGGAALAVLDAQQARLLGQQTRNDRAISEARNKLSSVTESLNTARNALTRAEQQLTQQKNTPDGKTIVSPEKFPGRSSTNHSIVVSGDPRFAGTIKITTSAVIDNRANLNYLLSHSGLDYKRNILNDRNPVVTEDVEGDKKIYNAEVALAEWDKLRQRLLDARNKITSAESAVASNSARNNLSARTNEQKHANDALNALLKEKENIRNQLSGINQKIAEEKRKQDELKATKDAINFTTEFLKSVSEKYGAKAEQLAREMAGQAKGKKIRNVEEALKTYEKYRADINKKINAKDRAAIAAALESVKLSDISSNLNRFSRGLGYAGKFTSLADWITEFGKAVARGTENWRPLFVKTETIIAGNAATALVALALVFSILTGSALGIIGYGLLMAVTGALIDESLVEKANKFWGIDEADYYCNSRDS
modifications: E217 - S228 from HBV HBsAg ScFV linked to Colicin Ia
notes: light chain CDR3 of HBV HBsAg ScFv linked to colicin Ia at residue 626

What was measured:
[1] = system: Aspergillus niger SWA 1011 strain; assay: In vitro cell growth inhibition assay; conditions: Ph-CA 5 μg/ml; Ph-SA 5 μg/ml; amphotericin B 200 ng/ml; Fluconazole 3 μg/ml
[2] = system: Candida albicans ATCC 10231; assay: In vitro cell growth inhibition assay (OD595, filaments); conditions: Ph-CA 5 μg/ml; Ph-SA 5 μg/ml; ampicillin 50 μg/ml; amphotericin B 200 ng/ml; fluconazole 3 μg/ml
[3] = system: SMMC-7721 cells transfected with HCV; type: cell-based, human; conditions: about 100 micrograms per ml

| Molecule | effect on growth of Aspergillus niger [1] | effect on growth of Candida albicans [2] | cell count and morphological features versus control [3] |
| --- | --- | --- | --- |
| OC(Cn1cncn1)(Cn1cncn1)c1ccc(F)cc1F [fluconazole] | no effect on the growth | no effect on the growth | – |
| C[C@@H]1[C@H](O)[C@@H](C)/C=C/C=C/C=C/C=C/C=C/C=C/C=C/[C@H](O[C@@H]2O[C@H](C)[C@@H](O)[C@H](N)[C@@H]2O)C[C@@H]2O[C@](O)(C[C@@H](O)C[C@@H](O)[C@H](O)CC[C@@H](O)C[C@@H](O)CC(=O)O[C@H]1C)C[C@H](O)[C@H]2C(=O)O [amphotericin B] | inhibited Aspergillus niger growth | completely inhibited C. albicans growth | – |
| B1 | – | – | Some of the treated cells died in comparison with the control and the rest became swollen and/or deformed |
| B2 | – | – | Cell swelling occurred in certain cells |
| B3 | – | – | A portion of the treated cells died in comparison with the control and the rest became swollen and/or deformed |
